Data on four molecules can be found in US11452291B2, “Induction of a physiological dispersion response in bacterial cells in a biofilm” (The Research Foundation for The State University of New York, priority 2007, dated 2022).

Experiment [1] relates to biofilm cells of Staphylococcus aureus. The conditions noted are these: cited from earlier work.
The subject of experiment [2] is P. aeruginosa biofilms. The experiment in a line: Microtiter plate dispersion bioassay. Format: cell-based, Pseudomonas aeruginosa PAO1. As to the method:
Microtiter plate dispersion bioassays were used to test various preparations for their ability to exogenously induce biofilm dispersion. Biofilms were grown on the inside surface of microtiter plate wells using a semi-batch culture method in which the medium within each well was replaced periodically to reduce the accumulation of native dispersion inducing factors. Biofilms grown in this manner were treated with dispersion inducer or sterile medium to release cells into the bulk liquid and evaluate dispersed cell number by measuring optical density. Briefly, sterile polystyrene 96 well plates were etched with acetone for 10 seconds to create a rough surface for the attachment of microbial cells. After drying for 24 hours, plates were inoculated with 150 μL/well of overnight culture containing the test organism, previously diluted 1:20 in growth medium and incubated at 30° C. with shaking at 200 rpm. Medium in the wells was replaced every 24 hours for 5 days and every 12 hours on day 6 and day 7. Medium was then replaced after 7 hours. Dispersion induction was tested by adding 150 μL growth medium containing dispersion inducer for 1 hr at 30° C. or sterile medium as a control. Medium containing dispersed cells was then transferred by pipet to a non-etched microtiter plate and the optical density (OD570) was determined (ELx808 Absorbance Microplate Reader; BioTek Instruments, Inc., Winooski, Vt.). […] Note: Microtiter plate dispersion bioassays were not suitable for determining absolute magnitude of an induced dispersion response because in a semi-batch system, control and test samples are susceptible to natural dispersion against which the activity of exogenous induction is measured. All efficiency studies were performed using biofilm tube reactor or flow-cell continuous culture systems and were based on both total cell counts and viable cell counts.

Experiment [3] deals with P. aeruginosa biofilm microcolonies. In words: Microscopic analysis of mature biofilm in flow cell. Format: cell-based, Pseudomonas aeruginosa. As to the method:
A continuous-culture once-through flow cell was configured to observe the growth and development of biofilms attached to a glass substratum. The flow cell was constructed of aluminum containing a chamber 1.0 mm by 1.4 cm by 4.0 cm capped with a glass cover slip. Sterile modified EPRI medium was pumped from a 10-liter vessel through silicone tubing to the flow cell using a Masterflex 8-roller-head peristaltic pump at a flow rate of 0.13 mL/min. Flow through the chamber was laminar, with a Reynolds number of 0.17, having a fluid residence time of 4.3 min. Medium leaving the flow cell was discharged to an effluent reservoir via silicone tubing. The entire system was closed to the outside environment but maintained in equilibrium with atmospheric pressure by a 0.2-μm-pore-size gas-permeable filter fitted to each vessel. […] Each cell cluster was measured to determine its height by focusing from the substratum through to the apex of the cluster, and its width by measurement at the base of the cell cluster using a stage micrometer. Cell clusters were defined as cells embedded within an exopolysaccharide matrix attached to the substratum and lacking motility; void areas within cell clusters were determined by the observation of free-swimming bacteria within a space inside a cell cluster. […]

On to `OCl` [chlorine, sodium hypochlorite], for which the “increase in concentration required to kill biofilm cells compared to planktonic cells” value in experiment [1] was 600 fold.
Turning to `CCCCCCC/C=C\C(=O)O` [cis-2-decenoic acid], the “dispersion activity compared to un-concentrated spent culture medium” value in experiment [2] (1.0 nanomolar) is given as “greater dispersion activity at 1.0 nanomolar than un-concentrated spent culture medium”. The “time at which microcolony disaggregation begins” value in experiment [3] (10 μM added to mature biofilm in flow cell) came to 11 min. For the same molecule, the “effect on biofilm microcolony by microscopy” value in experiment [3] (FIG. 13) was “completely disrupting a biofilm microcolony”.
`CC(C)CCCCCCC/C=C\C(=O)O` [DSF, reference compound]: the “promotion of dispersion of P. aeruginosa” value in experiment [2] is “shown not to promote dispersion”.
Turning to `CCCCCCC/C=C/C(=O)O` [trans-2-decenoic acid], in experiment [2] (biofilm cultures grown in microtiter plates), the “concentration range with dispersion activity” value was “activity only at millimolar concentrations”.
